Assay results from patent publication EP0594223B1, “Combination of therapeutic nucleosides and further therapeutic agents” (THE WELLCOME FOUNDATION LIMITED, priority 1985, dated 1987).
Read-outs that look alike come from different tables or passages of the source.

What was measured:
HIV [1] = experiment: AZT/acyclovir combination, in vitro efficacy (protection) vs. HIV; format: cell-based
Procedure: Using a method analogous to that described in Example 79 of EP21758A, combinations of AZT and acyclovir (ACV) were tested for in vitro efficacy vs. HIV.

HIV [2] = experiment: HIV p24 antigen by radioimmunoassay in HIV-infected PBMC cultures; format: cell-based; settings: Experiment 4, Day 14
HIV [3] = experiment: Virus yield of HIV-infected PBMC cultures; format: cell-based; settings: Experiment 3, Day 13; AZT .04 µM alone
[4] = test system: vaccinia, HSVI and varicella zoster virus (VZV); settings: De Clerq et al, Biochem.Pharm. (1980) 29, 1849-1851; including DNA viruses; cited from earlier work
HIV [5] = experiment: Reverse transcriptase activity in supernatant of HIV-infected PBMC, with multiple drug effect analysis; format: cell-based; settings: for mean reverse transcriptase values: Experiment 2, Day 10
E. coli CN314 = experiment: MIC determination of each drug alone; format: cell-based; settings: Escherichia coli
Procedure: Microtiter dilutions were prepared using Wellcotest broth. Prior to synergy testing, MIC determinations were made for each compound individually against the test organism (E. coli CN314).

[6] = test system: Friend Lenkemia Virus (FLV); experiment: Anti-Friend Leukemia Virus plaque inhibition in FG-10 cells; format: cell-based
Procedure: FG-10 cells were seeded on a plate one day before they were infected with FLV. One hour after infecting, known concentrations of the test compounds or combinations were added. The plates were incubated for 3 days, the media replaced with fresh McCoy's 5A media and incubated another 3 days. […]

[7] = test drugs alone, E. coli CN314, read-out: MIC

Compound: Nc1nc2c(ncn2COCCO)c(=O)[nH]1 [ACV, 9-(2-hydroxyethoxymethyl) guanine, reference compound]
- protection (HIV [1]; ACV alone, 16 µg/ml (the highest tested)): less than 30%
- potentiates the antiviral activity of AZT (HIV [1]; ACV combined with AZT vs. HIV): about 3 fold

Compound: Cc1cn([C@H]2C[C@H](N=[N+]=[N-])[C@@H](CO)O2)c(=O)[nH]c1=O [AZT]
- HIV p24 (HIV [2]; AZT 0.02 µM alone): 100-200 ng protein/ml
- HIV p24 (HIV [2]; AZT 0.04 µM alone): 25-30 ng protein/ml
- HIV p24 (HIV [2]; AZT 0.08 µM alone): 11.2 ng protein/ml
- virus yield (HIV [3]): 10^3 TCID50 /ml
- activity against viruses [4]: no appreciable activity
- protection (HIV [1]; AZT alone at 8µM): 100%
- AZT (HIV [1]; Table 3: AZT concentration with ACV 0 µg/ml, effect level not stated (presumably full protection)): 8 µM
- mean reverse transcriptase values (HIV [5]; AZT 0.01 µM alone): 159 cpm/10^6 cells x 10^3
- mean reverse transcriptase values (HIV [5]; AZT 0.02 µM alone): 110 cpm/10^6 cells x 10^3
- mean reverse transcriptase values (HIV [5]; AZT 0.04 µM alone): 71 cpm/10^6 cells x 10^3
- mean reverse transcriptase values (HIV [5]; AZT 0.08 µM alone): 31 cpm/10^6 cells x 10^3
- mean reverse transcriptase values (HIV [5]; AZT 0.16 µM alone): 7 cpm/10^6 cells x 10^3
- mean RT values (HIV [5]; Experiment 3, Day 13, AZT 0.02 µM alone): 51 cpm/10^6 cells x 10^3
- mean RT values (HIV [5]; Experiment 3, Day 13, AZT 0.04 µM alone): 10 cpm/10^6 cells x 10^3
- mean RT values (HIV [5]; Experiment 3, Day 13, AZT 0.08 µM alone): 2 cpm/10^6 cells x 10^3
- mean RT values (HIV [5]; Experiment 3, Day 13, AZT 0.16 µM alone): 5 cpm/10^6 cells x 10^3
- mean RT values (HIV [5]; Experiment 4, Day 11, AZT 0.02 µM alone): 8 cpm/10^6 cells x 10^3
- mean RT values (HIV [5]; Experiment 4, Day 11, AZT 0.04 µM alone): 4 cpm/10^6 cells x 10^3
- mean RT values (HIV [5]; Experiment 4, Day 11, AZT 0.08 µM alone): 1 cpm/10^6 cells x 10^3
- inhibition of viral replication (HIV [5]; experiment 1, all concentrations of AZT (3.2 µM and 5 twofold dilutions)): fully inhibitory
- MIC (E. coli CN314; [7]): 1 mg/L
- EC50 ([6]; read-out: Azidothymidine ED50): 5 nM

Compound: O=C(N[C@H](CO)[C@H](O)c1ccc([N+](=O)[O-])cc1)C(Cl)Cl [Chloramphenicol]
- MIC (E. coli CN314; [7]): 3.1 mg/L

Compound: CCC[C@@H]1C[C@@H](C(=O)N[C@@H]([C@H]2O[C@H](SC)[C@H](O)[C@@H](O)[C@H]2O)[C@H](C)Cl)N(C)C1 [Clindamycin]
- MIC (E. coli CN314; [7]): 100 mg/L

Compound: CC[C@H]1OC(=O)[C@H](C)[C@@H](O[C@H]2C[C@@](C)(OC)[C@@H](O)[C@H](C)O2)[C@H](C)[C@@H](O[C@@H]2O[C@H](C)C[C@H](N(C)C)[C@H]2O)[C@](C)(O)C[C@@H](C)C(=O)[C@H](C)[C@@H](O)[C@]1(C)O [Erthromycin]
- MIC (E. coli CN314; [7]): 25 mg/L

Compound: CC(=O)O[C@H]1C[C@@]2(C)[C@@H](C[C@@H](O)[C@H]3[C@@]4(C)CC[C@@H](O)[C@@H](C)[C@@H]4CC[C@@]32C)/C1=C(\CCC=C(C)C)C(=O)O [Fusidic acid]
- MIC (E. coli CN314; [7]): 1000 mg/L

Compound: CO[C@H]1/C=C/O[C@@]2(C)Oc3c(C)c(O)c4c(O)c(c(/C=N/N5CCN(C)CC5)c(O)c4c3C2=O)NC(=O)/C(C)=C\C=C\[C@H](C)[C@H](O)[C@@H](C)[C@@H](O)[C@@H](C)[C@H](OC(C)=O)[C@@H]1C [Rifampicin]
- MIC (E. coli CN314; [7]): 6.2 mg/L

Compound: Cc1cc(C)nc(NS(=O)(=O)c2ccc(N)cc2)n1 [Sulphadimidine]
- MIC (E. coli CN314; [7]): 32 mg/L

Compound: NC[C@H]1O[C@H](O[C@H]2[C@H](O)[C@@H](O[C@H]3O[C@H](CO)[C@@H](O)[C@H](N)[C@H]3O)[C@H](N)C[C@@H]2N)[C@H](N)C[C@@H]1O [Tobramycin]
- MIC (E. coli CN314; [7]): 0.4 mg/L

Compound: COc1cc(Cc2cnc(N)nc2N)cc(OC)c1OC [Trimethoprim, 2,4-diamino-5-(3',4',5'-trimethoxybenzyl) pyrimidine]
- MIC (E. coli CN314; CN314): 0.125 mg/L

Compound: COc1cc(C(=O)OCCCN2CCCN(CCCOC(=O)c3cc(OC)c(OC)c(OC)c3)CC2)cc(OC)c1OC [dilazep]
- antiviral effect ([6]; dilazep alone, 5 µM): Neither dipyridamole (10 µM) nor dilazep (5 µM) alone had any observed antiviral effect

Compound: OCCN(CCO)c1nc(N2CCCCC2)c2nc(N(CCO)CCO)nc(N3CCCCC3)c2n1 [dipyridamole]
- antiviral effect ([6]; dipyridamole alone, 10 µM): Neither dipyridamole (10 µM) nor dilazep (5 µM) alone had any observed antiviral effect
